We go through 19 substances from US20110039763A1, “TARGETED ANTIMICROBIAL MOIETIES” (C3 JIAN, INC., priority 2009, published 2011).

Experiment [1] concerns microorganisms. Briefly: Morphology, biofilm and growth disrupting peptides (Table 5). The class given is cell-based. Further details: key: A: Peptide aggregates; B: Less hyphal formation; Clumps; Diffuse clumps and small polyps; F: Diffuse growth; H: Thin; I: Growth inhibition; Microcolony formation; Rippled; Small polyps; Thick; W: Halo formation on top, microlonies on bottom. An excerpt:
In certain embodiments peptides that induce alterations in phenotype or other biological activities can also be used as antimicrobial effector moieties.

Experiment [2] deals with microorganisms. Briefly: Peptide activities: targeting/binding, antimicrobial, growth or phenotype altering (Tables 7, 8). The class given is cell-based. The note with it: peptides having multiple activities. An excerpt: In certain embodiments, peptides described herein can have multiple activities. Thus for example, a peptide can have both binding/targeting activity and antimicrobial activity. Such peptides can be used, e.g., in a chimeric construct, for any or all of these properties. Thus, for example, a peptide designated “B” in Table 8 can be used as a targeting peptide. If it is also designated G or M it can also be used for antimicrobial activity.
Table 8. Peptides Having Multiple Activities. B: Targeting/Binding Activity; M: Antimicrobial Activity; G: GROWTH or Phenotype Altering.

For “PF-145: peptide having multiple activities (chain 1 GIVLTGRAGLVSGACSMALGVGLG; chain 2 GIVLTGRAGLVSGACSMALGVGLG; Peptide with targeting and/or antimicrobial activity)”, the “Organism, effect: B. subtilis” value with microorganisms [1] (B. subtilis) is “B. subtilis (C)”. In the experiment on microorganisms [1], the “Organism, effect: C. jeikeium” value is “C. jeikeium (R)”; the “Organism, effect: C. jejuni” value is listed as “C. jejuni (R)”; the “Organism, effect: M. luteus” value is reported as “M. luteus (A)”; the “Organism, effect: MRSA” value is given as “MRSA (M)”. Also, in the experiment on microorganisms [1], the “Organism, effect: S. epidermidis” value was “S. epidermidis (D)” and the “Organism, effect: S. pneumoniae” value is listed as “S. pneumoniae (R)”. In addition, in the experiment on microorganisms [2], the Activities result is listed as “G B”.
Turning to “PF-157: peptide having multiple activities (HTAVVWLAGVSGCVALSHCEPA; Peptide with targeting and/or antimicrobial activity)”, in the experiment on microorganisms [1], the “Organism, effect: S. epidermidis” value is listed as “S. epidermidis (M)”. For the same substance, the Activities entry in the experiment on microorganisms [2] is “G B”.
Consider “PF-178: peptide having multiple activities (EVYSSPTNNVAITVQNN; Peptide with targeting and/or antimicrobial activity)”, for which, in the experiment with microorganisms [1], the “Organism, effect: E. coli” value is listed as “E. coli (C)”; the “Organism, effect: MRSA” value is on record as “MRSA (M)”; the “Organism, effect: S. epidermidis” value is on record as “S. epidermidis (D)”; the “Organism, effect: S. pneumoniae” value is on record as “S. pneumoniae (D)”. In addition, the Activities result with microorganisms [2] is reported as “G B”.
For the substance “PF-190: peptide having multiple activities (HFILRKPLLFMIHSLKTGPLDRF; Peptide with targeting and/or antimicrobial activity)”, in the experiment with microorganisms [1], the “Organism, effect: C. jeikeium” value was “C. jeikeium (R)” and the “Organism, effect: S. epidermidis” value was “S. epidermidis (C)”. In the experiment with microorganisms [2], the Activities entry was “G B”.
On the same counts, the results for “PF-196: peptide having multiple activities (TTARYIRRQCHTSITPLSQG; Peptide with targeting and/or antimicrobial activity)” are “C. jeikeium (R)”, “S. epidermidis (C)” and “G B”.
For the substance “PF-203: peptide having multiple activities (SWKCHHLAI; Peptide with targeting and/or antimicrobial activity)”, in the experiment on microorganisms [1], the “Organism, effect: C. jeikeium” value was “C. jeikeium (R)” and the “Organism, effect: S. epidermidis” value is on record as “S. epidermidis (A)”. Moreover, in the experiment on microorganisms [2], the Activities result was “G B”.
With “PF-347: peptide having multiple activities (GIFTGVTVVVSLKHC; Peptide with targeting and/or antimicrobial activity)”, in the experiment with microorganisms [1], the “Organism, effect: E. coli” value is reported as “E. coli (C)”; the “Organism, effect: E. faecalis” value was “E. faecalis (C)”; the “Organism, effect: MRSA” value was “MRSA (C)”; the “Organism, effect: S. epidermidis” value is given as “S. epidermidis (C)”. In addition, the Activities result in the experiment on microorganisms [2] is “G B”.
“PF-354: peptide having multiple activities (FTFSKCRASNGRGFGTLWL; Peptide with targeting and/or antimicrobial activity)”: in the experiment on microorganisms [1], the “Organism, effect: MRSA” value is given as “MRSA (H)”. Further, in the experiment on microorganisms [2], the Activities entry is “G B”.
As to “PF-355: peptide having multiple activities (chain 1 WIAIGLLLYFSLKNQ; chain 2 WIAIGLLLYFSLKNQ; Peptide with targeting and/or antimicrobial activity)”, in the experiment on microorganisms [1], the “Organism, effect: C. jejuni” value is “C. jejuni (D)”; the “Organism, effect: E. coli” value is recorded as “E. coli (C)”; the “Organism, effect: E. faecalis” value is on record as “E. faecalis (D)”; the “Organism, effect: MRSA” value is recorded as “MRSA (A)”. Moreover, in the experiment with microorganisms [1], the “Organism, effect: P. aeruginosa” value is listed as “P. aeruginosa (A)”; the “Organism, effect: S. epidermidis” value is given as “S. epidermidis (C)”; the “Organism, effect: S. pneumoniae” value is recorded as “S. pneumoniae (D)”. For the same substance, the Activities entry in the experiment on microorganisms [2] was “G B”.
“PF-356: peptide having multiple activities (chain 1 VSIKIGAIVIGMIGLMELLTE; chain 2 VSIKIGAIVIGMIGLMELLTE; Peptide with targeting and/or antimicrobial activity)”: in the experiment on microorganisms [1], the “Organism, effect: C. jejuni” value was “C. jejuni (D)”; the “Organism, effect: E. faecalis” value was “E. faecalis (R)”; the “Organism, effect: MRSA” value was “MRSA (C)”; the “Organism, effect: P. aeruginosa” value was “P. aeruginosa (A)”. For the same substance, in the experiment on microorganisms [1], the “Organism, effect: S. epidermidis” value is listed as “S. epidermidis (S)” and the “Organism, effect: S. pneumoniae” value is given as “S. pneumoniae (R)”. Besides, in the experiment with microorganisms [2], the Activities entry is on record as “G B”.
Regarding “PF-357: peptide having multiple activities (chain 1 MLTIIIGFIFWTMTLMLGYLIGEREGRKHE; chain 2 MLTIIIGFIFWTMTLMLGYLIGEREGRKHE; Peptide with targeting and/or antimicrobial activity)”, in the experiment with microorganisms [1], the “Organism, effect: M. luteus” value is on record as “M. luteus (C)”; the “Organism, effect: MRSA” value is “MRSA (M)”; the “Organism, effect: S. epidermidis” value is “S. epidermidis (M)”; the “Organism, effect: S. pneumoniae” value was “S. pneumoniae (M)”. Also, the Activities result with microorganisms [2] is listed as “G B”.
As to “PF-374: peptide having multiple activities (chain 1 HLFFVKGMFILCQKNQINDE; chain 2 HLFFVKGMFILCQKNQINDE; Peptide with targeting and/or antimicrobial activity)”, in the experiment on microorganisms [1], the “Organism, effect: E. coli” value is given as “E. coli (C)”; the “Organism, effect: E. faecalis” value is “E. faecalis (C)”; the “Organism, effect: MRSA” value is “MRSA (M)”; the “Organism, effect: S. epidermidis” value is recorded as “S. epidermidis (C)”. Also, the Activities result in the experiment on microorganisms [2] is “G B”.
For “PF-376: peptide having multiple activities (chain 1 MTVFEALMLAIAFATLIVKISNKNDKK; chain 2 MTVFEALMLAIAFATLIVKISNKNDKK; Peptide with targeting and/or antimicrobial activity)” the same measures were “E. coli (C)”, “E. faecalis (C)”, “MRSA (C)”, “S. epidermidis (C)” and “G B”.
On the same counts, the results for “PF-379: peptide having multiple activities (chain 1 VFVVLFIIYLASKLLTKLFPIKK; chain 2 VFVVLFIIYLASKLLTKLFPIKK; Peptide with targeting and/or antimicrobial activity)” are “E. coli (C)”, “E. faecalis (C)”, “MRSA (C)”, “S. epidermidis (C)” and “G B”.
Take “PF-380: peptide having multiple activities (chain 1 KKIIPLITLFVVTLVG; chain 2 KKIIPLITLFVVTLVG; Peptide with targeting and/or antimicrobial activity)”: in the experiment on microorganisms [1], the “Organism, effect: C. jejuni” value was “C. jejuni (D)”; the “Organism, effect: E. coli” value was “E. coli (C)”; the “Organism, effect: E. faecalis” value is recorded as “E. faecalis (C)”; the “Organism, effect: MRSA” value was “MRSA (D)”. Moreover, in the experiment with microorganisms [1], the “Organism, effect: P. aeruginosa” value is “P. aeruginosa (A)”; the “Organism, effect: S. epidermidis” value is on record as “S. epidermidis (C)”; the “Organism, effect: S. pneumoniae” value is recorded as “S. pneumoniae (D)”. Moreover, the Activities entry in the experiment on microorganisms [2] was “G B”.
On to “PF-386: peptide having multiple activities (chain 1 FTLTLITTIVAILNYKDKKK; chain 2 FTLTLITTIVAILNYKDKKK; Peptide with targeting and/or antimicrobial activity)”, for which, in the experiment with microorganisms [1], the “Organism, effect: E. coli” value is given as “E. coli (C)”; the “Organism, effect: E. faecalis” value is reported as “E. faecalis (C)”; the “Organism, effect: MRSA” value is “MRSA (C)”; the “Organism, effect: S. epidermidis” value was “S. epidermidis (C)”. In addition, the Activities entry in the experiment with microorganisms [2] was “G B”.
For “PF-398: peptide having multiple activities (chain 1 ILVVLAGILLVVLSYVGISKFKMNC; chain 2 ILVVLAGILLVVLSYVGISKFKMNC; Peptide with targeting and/or antimicrobial activity)” the same measures were “E. coli (C)”, “E. faecalis (C)”, “MRSA (C)”, “S. epidermidis (C)” and “G B”.
As to “PF-399: peptide having multiple activities (chain 1 FPIISALLGAIICIAIYSFIVNRKA; chain 2 FPIISALLGAIICIAIYSFIVNRKA; Peptide with targeting and/or antimicrobial activity)”, in the experiment on microorganisms [1], the “Organism, effect: E. coli” value is given as “E. coli (C)”; the “Organism, effect: E. faecalis” value was “E. faecalis (C)”; the “Organism, effect: MRSA” value was “MRSA (C)”; the “Organism, effect: S. epidermidis” value is recorded as “S. epidermidis (C)”. Also, the Activities result in the experiment with microorganisms [2] is “G B”.
As for “PF-407: peptide having multiple activities (chain 1 KPKNKKEKTVISYEKLLSMY; chain 2 KPKNKKEKTVISYEKLLSMY; Peptide with targeting and/or antimicrobial activity)”, in the experiment on microorganisms [1], the “Organism, effect: E. faecalis” value is recorded as “E. faecalis (R)”; the “Organism, effect: MRSA” value is “MRSA (C)”; the “Organism, effect: S. epidermidis” value was “S. epidermidis (M)”; the “Organism, effect: S. pneumoniae” value was “S. pneumoniae (R)”. For the same substance, in the experiment on microorganisms [2], the Activities result is recorded as “G B”.
